Columns and labels:
[1] = MTT cytotoxicity assay in R116 cells; assay type: cell-based; details: human, R116 cell line, three days, FIG. 8, read-out: ED50 (cytotoxicity)
Procedure: Three days later, drug cytotoxicity was quantitated with a standard MTT assay in which the uptake and metabolism of 3-[4,5-dimethylthiazol-2-yl]2,5-dephenyltetrazolium bromide (MTT) by cells was measured (14). The amount of formazan produced in 2 hours was determined by dissolving the product in 100% DMSO and then measuring the absorbance at 570 nm.
HeLa-T4 is the parental cell line.
Cells sensitive, parental HT4 (open circle), S1 (solid square), Spool (solid circle) and refractory, R116 (open square) were grown in the presence of various concentrations of FUdR. Three days latter, cell viability was determined by the MTT reduction method.

in vitro = details: human
HIV-1 IIIB = HIV-1 IIIB infection of Jurkat JE6.1 cell populations, AZT IC50 with FUdR (RT activity); assay type: cell-based; details: in all of these studies
Procedure: HIV-1 production in infected, cultures was determined by a ^32P-based assay as described (34). RT activity was determined by […] of ^32P bound to the DE81 paper by using a Molecular Dynamics phosphorimager. The results are reported as pixel units per microliter of the reaction mixture.
In these experiments, three populations of cells were studied.

HIV-gpt [2] = details: in the presence of TIBO R82150; earlier study (26); cited from earlier work
HIV-gpt [3] = experiment: HIV-gpt colony formation after infection of HeLa-T4 cells in the presence of antiretroviral agents; assay type: cell-based; details: HeLa-T4; plasmid derived HIV-gpt (COS cells); AZT 10 μM, DDI 50 μM, D4T 50 μM; no drug control 8800
HIV-LacZ = assay type: cell-based

Row | Compound | EC50 at 3 days [1] [µM] | EC50 at 3 days (in vitro) [µM] | antiviral activity when used by itself (HIV-1 IIIB) | prevalence of infection with COS-cell derived virus versus HIV-gpt rescued by replication-competent virus (HIV-gpt [2]) | Number of colonies (HIV-gpt [3]) | selection of cells “persistently resistant” to the antiretroviral effects of the drug (HIV-LacZ; HeLa-T4, identical techniques as for nucleoside analogs) | Number of “persistently resistance” colonies (HIV-LacZ; colonies from HIV-gpt infection of HeLa-T4 in presence of drug, resistant/tested) | Frequency (HIV-LacZ; frequency of persistently resistant colonies, HeLa-T4, plasmid derived HIV-gpt)
1 | O=c1[nH]c(=O)n([C@H]2C[C@H](O)[C@@H](CO)O2)cc1F [FUdR, 2′-deoxy-5-fluorouridine] | 0.7 | 7 | moderate antiviral activity | – | – | – | – | –
2 | CC(C)=CCN1Cc2cccc3[nH]c(=S)n(c23)C[C@@H]1C [TIBO] | – | – | – | twenty fold lower | 3 | no cells “persistently resistant” | 0/3 | 0

— patent US6576622B1, “Drug combination for the treatment of viral diseases” (University of Medicine & Dentistry of New Jersey, priority 1995, dated 2003)
